Results as given in patent US12605397B2, “Deoxy-cytidine or uridine derivatives for use in cancer therapies” (HEMISPHERIAN AS, priority 2019, dated 2026).

Legend:
NCI-N87 cells = test: Survival assay (MTT), NCI-N87; type: cell-based, human; details: Homo sapiens
Protocol: (§1) Cells were passed between 70 and 90% confluence.
(§2) Cells were incubated with the drugs for 72 hours.

Arpe19 cells = test: Survival assay (MTT), Arpe19; type: cell-based, human; details: Homo sapiens
Protocol: as §2
(§3) The present inventors further investigated the extent to which these compounds kill normal human cells; low cytotoxicity against normal human cells is advantageous property for anti-cancer agents. The cytotoxicity of these compounds in various normal human cell lines was therefore investigated (Table 3). Cells were grown and the survival assay was performed as described above (Materials and Methods).

SK-OV-3 cells = test: Survival assay (MTT), SK-OV-3; type: cell-based, human; details: Homo sapiens
Protocol: as §1, §2

U3013 cells = test: Survival assay (MTT), U3013; type: cell-based, human; details: Homo sapiens, U3013, Glioma, Grade IV, 72 hours
Protocol: as §1, §2

A-498 cells = test: Survival assay (MTT), A-498; type: cell-based, human; details: Homo sapiens
Protocol: as §1, §2

U937 cells = test: Survival assay (MTT), U937; type: cell-based, human; details: Homo sapiens, U-937
Protocol: as §1, §2

22Rv1 cells = test: Survival assay (MTT), 22Rv1; type: cell-based, human; details: Homo sapiens
Protocol: as §1, §2

U3017 cells = test: Survival assay (MTT), U3017; type: cell-based, human; details: Homo sapiens, U3017, Glioma, Grade IV, 72 hours
Protocol: as §1, §2

[1] = tested on: Glioma, Grade IV cell lines; test: Survival assay, panel of 12 patient derived Glioma, Grade IV cell lines; type: cell-based, human; details: of 12 cell lines of Table 2
Protocol: (§4) Primary glioma neural stem (GNS) cells (G7, G14, G144, G166) were cultured on poly-D-lysine (Merck Millipore, Cat. Nr. A-003-E) and laminin (R&D Systems, Cat.Nr. 3446-005-01) coated plates in neural stem cell medium (50% DMEM-F12 (Thermofisher, Cat. Nr. 21041025), 50% neurobasal medium (Thermofisher, Cat. Nr. 10888-022), N2 (Life Technologies, Cat. Nr. A-003-E) and B27 supplements (Life Technologies, Cat.Nr. 12587010), 1 mM sodium pyruvate (Life Technologies, Cat.Nr. 11360-039), 2 mM glutamax (Life Technologies, Cat. Nr. 35050038), 1 mM HEPES (Fisher Scientific, Cat. Nr. BP299-1), 0.1 mM β-mercaptoethanol (Life Technologies, Cat. Nr. 31350010), 1× nonessential amino acids (Life Technologies, Cat. Nr. 11140-035), 0.006% bovine serum albumin (Sigma, Cat. Nr. A8577-10ML), 4 μg/ml heparin (Sigma, Cat. Nr. H3149-25KU), 100 U/ml penicillin, 100 μg/ml streptomycin, 20 ng/ml hEGF (R&D Systems, Cat. Nr. 236-EG-200), 10 ng/ml bFGF (Peprotech, Cat. Nr. 100-18B).
as §1, §2
Due to lack of activity in previous assays, 5-carboxyl-2′-deoxycytidine was not included in this more rigorous analysis.

G14 cells = test: Survival assay (MTT), G14; type: cell-based, human; details: Homo sapiens, G14, Glioma, Grade IV, 72 hours
Protocol: as §4, §2

G30 cells = test: Survival assay (MTT), G30; type: cell-based, human; details: Homo sapiens, G30, Glioma, Grade IV, 72 hours
Protocol: as §1, §2

G26 cells = test: Survival assay (MTT), G26; type: cell-based, human; details: Homo sapiens, G26, Glioma, Grade IV, 72 hours
Protocol: as §1, §2

MCF-7 cells = test: Survival assay (MTT), MCF-7; type: cell-based, human; details: Homo sapiens, MCF7
Protocol: as §1, §2

G7 cells = test: Survival assay (MTT), G7; type: cell-based, human; details: Homo sapiens, G7, Glioma, Grade IV, 72 hours
Protocol: as §4, §2

HEK293FT cells = test: Survival assay (MTT), HEK293FT; type: cell-based; details: Homo sapiens
Protocol: as §1, §2, §3

[2] = NCI-N87, Gastric Carcinoma, 72 hours, MTT
[3] = NCI-N87, Tables 6 and 7, unit inferred
[4] = ARPE-19, 72 h, Arpe19, Normal, Ectoderm, 72 hours, MTT
[5] = ARPE-19, ARPE19, Tables 6 and 7, unit inferred
[6] = SK-OV-3, Ovarian Adenocarcinoma, 72 hours, MTT
[7] = SK-OV-3, Tables 6 and 7, unit inferred
[8] = A498, 72 h, A-498, Kidney Carcinoma, 72 hours, MTT
[9] = A498, A-498, Tables 6 and 7, unit inferred
[10] = U937, Tables 6 and 7, unit inferred
[11] = 22Rv1, 22Rv1, Tables 6 and 7, unit inferred
[12] = 22Rv1, 72 h, 22Rv1, Prostate Carcinoma, 72 hours, MTT
[13] = MCF-7, Epithelial Adenocarcinoma (Breast), 72 hours, MTT
[14] = MCF-7, Tables 6 and 7, unit inferred
[15] = HEK293, Tables 6 and 7, unit inferred

| Structure (SMILES) | IC50 (NCI-N87 cells; [2]) [µM] | IC50 (NCI-N87 cells; [3]) [µM] | IC50 (Arpe19 cells; [4]) [µM] | IC50 (Arpe19 cells; [5]) [µM] | IC50 (SK-OV-3 cells; [6]) [µM] | IC50 (SK-OV-3 cells; [7]) [µM] | IC50 (U3013 cells) [µM] | IC50 (A-498 cells; [8]) [µM] | IC50 (A-498 cells; [9]) [µM] | IC50 (U937 cells; U937, Lymophoma, 72 hours, MTT) [µM] | IC50 (U937 cells; [10]) [µM] | IC50 (22Rv1 cells; [12]) [µM] | IC50 (U3017 cells) [µM] | number of Glioma, Grade IV cell lines killed [1] | IC50 (G14 cells) [µM] | IC50 (G30 cells) [µM] | IC50 (G26 cells) [µM] | IC50 (MCF-7 cells; [13]) [µM] | IC50 (G7 cells) [µM] | IC50 (HEK293FT cells; 72 h, Normal, Kidney, MTT) [µM] | also measured |
| --- | --- | --- | --- | --- | --- | --- | --- | --- | --- | --- | --- | --- | --- | --- | --- | --- | --- | --- | --- | --- | --- |
| Nc1nc(=O)n([C@H]2C[C@H](O)[C@@H](CO)O2)cc1C=O [2d5fC, 5-formyl-2′-deoxycytidine] | 0.806 | 0.806 | > 25 | ≥ 25 | 9.69 | 9.69 | > 100 | > 25 | ≥ 25 | 0.954 | 0.954 | > 25 | > 100 | 5 of 12 | > 100 | 18 | 28.1 | 0.866 | 19.2 | > 25 | IC50 (22Rv1 cells; [11]): ≥ 25 µM; IC50 (MCF-7 cells; [14]): 0.866 µM; IC50 (HEK293FT cells; [15]): ≥ 25 µM |
| Nc1nc(=O)n([C@H]2C[C@H](O)[C@@H](CO)O2)cc1CO [2d5hmC, 5-hydroxymethyl-2′-deoxycytidine] | > 25 | ≥ 25 | > 25 | ≥ 25 | > 25 | ≥ 25 | > 100 | > 25 | ≥ 25 | > 25 | ≥ 25 | > 25 | 14.1 | 6 of 12 | 25.4 | 28.1 | > 100 | > 25 | 11.9 | > 25 | IC50 (22Rv1 cells; [11]): ≥ 25 µM; IC50 (MCF-7 cells; [14]): ≥ 25 µM; IC50 (HEK293FT cells; [15]): ≥ 25 µM |
| Cn1nnc2c(C(N)=O)ncn2c1=O [Temozolomide, 4-methyl-5-oxo-2,3,4,6,8-pentazabicyclo[4.3.0]nona-2,7,9-triene-9-carboxamide, reference compound] | > 25 | – | > 25 | – | > 25 | – | > 100 | > 25 | – | 13.1 | – | > 25 | > 100 | 5 of 12 | 6.02 | 21.6 | 7.34 | > 25 | 6.18 | > 25 | – |
